Results: patent publication US20230399358A1, “IMMUNOGLOBULIN PURIFICATION PEPTIDES AND THEIR USE” (North Carolina State University, priority 2019, published 2023)
Values belong to the molecule of their own block, whether it stands above or below them. Non-standard residues stand in square brackets, D forms with d. No end group written: not given here. Cit = NC(=O)NCCC[C@H](N)C(=O)O; Nle = CCCC[C@H](N)C(=O)O

Legend:
human IgG = format: binding; settings: peptide on Toyopearl AF-amino-650M, 30 min, room temperature
Protocol: (§1) Measurement of IgG binding by peptide-based chromatographic adsorbents: For initial studies, 35 mg of MWRGWQ (SEQ ID NO:2)-Toyopearl, RHLGWF (SEQ ID NO:3)-Toyopearl, WQRHGI (SEQ ID NO:1)-Toyopearl, GWLHQR (SEQ ID NO:4)-Toyopearl, and HWRGWV (SEQ ID NO:18)-Toyopearl (control) resins were equilibrated in PBS pH 7.4, reaching a swollen volume of 0.1 mL, and subsequently incubated with 1 mg/mL IgG in 0.205 mg/mL CHO cell culture supernatant for 30 minutes. The resins were subsequently washed several times with PBS to remove non-specifically bound proteins. Elution was performed with 100 mM glycine buffer pH 2.5. Flowthrough and elution fractions were collected and analyzed by SDS PAGE under reducing conditions. The resulting gels were stained with Coomassie staining. Further, 25 mg of the adsorbents MWRGWQ (SEQ ID NO:2)-Toyopearl, NIFRGWQ (SEQ ID NO:21)-Toyopearl, MWRAWQ (SEQ ID NO:5)-Toyopearl, MWRGFQ (SEQ ID NO:7)-Toyopearl, MWRGWN (SEQ ID NO:22)-Toyopearl, (NorL) WRGWQ (SEQ ID NO:23)-Toyopearl, MGRGWQ (SEQ ID NO:24)-Toyopearl, MWRWQ (SEQ ID NO:6)-Toyopearl, MWRGGQ (SEQ ID NO:26)-Toyopearl, GWRGWQ (SEQ ID NO:8)-Toyopearl, WQRHGI (SEQ ID NO:1)-Toyopearl, WNRHGI (SEQ ID NO:12)-Toyopearl, WQRAGI (SEQ ID NO:28)-Toyopearl, WQRHAI (SEQ ID NO:11)-Toyopearl, WQRHGL (SEQ ID NO:9)-Toyopearl, FQRHGI (SEQ ID NO:29)-Toyopearl, and WQRHGV (SEQ ID NO:10)-Toyopearl resins were equilibrated in PBS pH 7.4, reaching a swollen volume of 0.1 mL, and subsequently incubated with 1 mg/mL IgG in PBS at pH 7.4 for 30 minutes. The amount of unbound IgG in the supernatant samples was quantified by Bradford assay and utilized to determine the IgG binding % by the peptide variants.
A limited library of residue-by-residue changes confirmed the importance of each residue in peptides WQRHGI (SEQ ID NO:1) and MWRGWQ (SEQ ID NO:2) in reducing the binding energy between the peptide and the IgG target. […] This was accomplished by designing and constructing an ensemble of 20 variants of peptides WQRHGI (SEQ ID NO:1) and MWRGWQ (SEQ ID NO:2). Selected residues in positions 1-6 were mutated. The peptide variants were synthesized directly on Toyopearl AF-amino-650M resin via Fmoc/tBu chemistry. The resulting adsorbents were incubated with a solution of human IgG at 2 mg/mL at a ratio of 1 mL of resin per 3.5 mL of solution for 30 min at room temperature. The residual concentration of IgG in solution was determined by Bradford concentration assay of the supernatants and utilized to calculate the amounts of bound IgG per volume of resin; Table 7 reports the % binding, defined as mg IgG bound by variant/mg IgG bound by original sequence (either WQRHGI (SEQ ID NO:1) or MWRGWQ (SEQ ID NO:2))×100%, of each sequence variant.

host cell protein (HCP) = settings: literature value; cited from earlier work
[1] = system: human polyclonal IgG in CHO-S cell culture fluid; assay: Static purification of IgG from CHO cell culture supernatant on peptide-Toyopearl resins, SDS-PAGE densitometry
Protocol: as §1
Characterization of IgG-binding peptide variants WQRHGI (SEQ ID NO:1), MWRGWQ (SEQ ID NO:2), RHLGWF (SEQ ID NO:3), and GWLHQR (SEQ ID NO:4) in competitive conditions: The four selected sequence variants were tested for their ability to purify human IgG from a CHO cell culture supernatant and found largely to mirror their in silico predictions. Even though they seemed to underperform in silico, RHLGWF (SEQ ID NO:3) and GWLHQR (SEQ ID NO:4) were tested alongside WQRHGI (SEQ ID NO:1) and MWRGWQ (SEQ ID NO:2) in these conditions in order to confirm their ability to bind IgG and examine their selectivity as predicted in silico. The feedstock was prepared by spiking human polyclonal IgG into a clarified null CHO-S cell culture fluid to obtain an IgG concentration of 1 mg/mL and a CHO HCP concentration of 0.205 mg/mL. An aliquot of 500 μL was loaded onto each peptide adsorbent in static conditions for 30 min. Following a washing step with PBS to remove loosely bound proteins, a first elution step was conducted using 0.1 M glycine buffer pH 2.5 to remove all bound proteins. Flow through fractions and pH 2.5 elution fractions were loaded neat and analyzed by SDS PAGE (FIGS. 6A-6B). The values of IgG purity in the eluted fractions were determined by densitometric analysis of the corresponding lanes on the gels, and are reported in Table 9.

[2] = molecular target: human polyclonal IgG (human); assay: batch incubation of peptide-Toyopearl resin with human IgG, Bradford of unbound IgG; mg IgG bound relative to MWRGWQ
[3] = molecular target: human polyclonal IgG (human); assay: batch incubation of peptide-Toyopearl resin with human IgG, Bradford of unbound IgG; mg IgG bound relative to WQRHGI

% Binding (mg IgG bound by variant/mg IgG bound by original sequence × 100%) (human IgG): 74.66%
Molecule: (NorL)WRGWQ ([Nle]WRGWQ) [ΛWRGWQ, Λ represents Nor-Leucine]

Molecule: Ac-HW[Cit]GWV
HCP LRV (host cell protein (HCP)): 2.07

% Binding (mg IgG bound by variant/mg IgG bound by original sequence × 100%) (human IgG): 37.18%
Molecule: FQRHGI

% Binding (mg IgG bound by variant/mg IgG bound by original sequence × 100%) (human IgG): 78.37%
Molecule: GWRGWQ

% Binding (mg IgG bound by variant/mg IgG bound by original sequence × 100%) (human IgG): 56.75%
Molecule: MFRGWQ

% Binding (mg IgG bound by variant/mg IgG bound by original sequence × 100%) (human IgG): Undetected
Molecule: MGRGWQ

% Binding (mg IgG bound by variant/mg IgG bound by original sequence × 100%) (human IgG): 0.48%
Molecule: MW(Cit)GWQ (MW[Cit]GWQ) [MWχGWQ]

% Binding (mg IgG bound by variant/mg IgG bound by original sequence × 100%) (human IgG): 96.96%
Molecule: MWRAWQ

% Binding (mg IgG bound by variant/mg IgG bound by original sequence × 100%) (human IgG): 89.19%
Molecule: MWRGFQ [MWRGEQ]

% Binding (mg IgG bound by variant/mg IgG bound by original sequence × 100%) (human IgG): 26.00%
Molecule: MWRGGQ

% Binding (mg IgG bound by variant/mg IgG bound by original sequence × 100%) (human IgG): 18.90%
Molecule: MWRGWN

% Binding (mg IgG bound by variant/mg IgG bound by original sequence × 100%) (human IgG): 91.55%
Molecule: MWRWQ

Molecule: RHLGWF
% Purity (IgG over total proteins) ([1]; Gel A, lane FT (flow-through)): 100.00%
% Purity (IgG over total eluted proteins) ([1]; Gel A, lane R (pH 2.5)): 52.28%
IgG yield ([1]; competitive conditions, CHO cell culture supernatant): high IgG yield
selectivity for IgG over HCPs ([1]; competitive conditions, in vitro): non-selective

% Binding (mg IgG bound by variant/mg IgG bound by original sequence × 100%) (human IgG): 77.43%
Molecule: WNRHGI

% Binding (mg IgG bound by variant/mg IgG bound by original sequence × 100%) (human IgG): 0.95%
Molecule: WQ(Cit)HGI (WQ[Cit]HGI) [WQχHGI]

% Binding (mg IgG bound by variant/mg IgG bound by original sequence × 100%) (human IgG): 62.80%
Molecule: WQRAGI

% Binding (mg IgG bound by variant/mg IgG bound by original sequence × 100%) (human IgG): 95.43%
Molecule: WQRHAI

% Binding (mg IgG bound by variant/mg IgG bound by original sequence × 100%) (human IgG): 99.09%
Molecule: WQRHGL

% Binding (mg IgG bound by variant/mg IgG bound by original sequence × 100%) (human IgG): 96.04%
Molecule: WQRHGV

% Binding (mg IgG bound by variant/mg IgG bound by original sequence × 100%) (human IgG): 86.89%
Molecule: WQRHI

% Binding [2]: 26%
B1: MWRGGQ (SEQ ID NO:26) (peptide)
peptide: MWRGGQ

% Binding [2]: 56.8%
B2: MFRGWQ (SEQ ID NO:21) (peptide)
peptide: MFRGWQ

% Binding [2]: 78.4%
B3: GWRGWQ (SEQ ID NO:8) (peptide)
peptide: GWRGWQ

% Binding [2]: 0.48%
B4: MW(Cit)GWQ (SEQ ID NO:25) (peptide)
peptide: MW[Cit]GWQ

% Binding [2]: 89.2%
B5: MWRGFQ (SEQ ID NO:7) (peptide)
peptide: MWRGFQ

% Binding [3]: 86.9%
B6: WQRHI (SEQ ID NO:33) (peptide)
peptide: WQRHI

% Binding [2]: 74.7%
B7: (NorL)WRGWQ (SEQ ID NO:23) (peptide)
peptide: [Nle]WRGWQ

% Binding [2]: 18.9%
B8: MWRGWN (SEQ ID NO:22) (peptide)
peptide: MWRGWN

% Binding [2]: 97%
B9: MWRAWQ (SEQ ID NO:5) (peptide)
peptide: MWRAWQ

% Binding [3]: 77.4%
B10: WNRHGI (SEQ ID NO:12) (peptide)
peptide: WNRHGI

% Binding [3]: 99.1%
B11: WQRHGL (SEQ ID NO:9) (peptide)
peptide: WQRHGL

% Binding [3]: 62.8%
B12: WQRAGI (SEQ ID NO:28) (peptide)
peptide: WQRAGI

% Binding [3]: 37.2%
B13: FQRHGI (SEQ ID NO:29) (peptide)
peptide: FQRHGI

% Binding [3]: 95.4%
B14: WQRHAI (SEQ ID NO:11) (peptide)
peptide: WQRHAI

% Binding [2]: 91.5%
B15: MWRWQ (SEQ ID NO:6) (peptide)
peptide: MWRWQ

% Binding [3]: 96%
B16: WQRHGV (SEQ ID NO:10) (peptide)
peptide: WQRHGV

% Binding [3]: 0.95%
B17: WQ(Cit)HGI (SEQ ID NO:27) (peptide)
peptide: WQ[Cit]HGI
